ChEMBL document CHEMBL4819009, “Modulators of hERAP2 discovered by high-throughput screening” (Eur J Med Chem, 2021)

How the values were obtained:
[1] = molecular target: T1, Endoplasmic reticulum aminopeptidase 2 (Homo sapiens, UniProt Q6P179); test: Inhibition of recombinant ERAP2 (unknown origin) expressed in baculovirus infected insect cells at 2 mM using R-AMC as substrate preincubated for 30 mins followed by substrate addition and measured every 3 mins for 1 hr by flourescence assay relative to control; details: time 90.0 min
T1 sequence (Q6P179 whole entry): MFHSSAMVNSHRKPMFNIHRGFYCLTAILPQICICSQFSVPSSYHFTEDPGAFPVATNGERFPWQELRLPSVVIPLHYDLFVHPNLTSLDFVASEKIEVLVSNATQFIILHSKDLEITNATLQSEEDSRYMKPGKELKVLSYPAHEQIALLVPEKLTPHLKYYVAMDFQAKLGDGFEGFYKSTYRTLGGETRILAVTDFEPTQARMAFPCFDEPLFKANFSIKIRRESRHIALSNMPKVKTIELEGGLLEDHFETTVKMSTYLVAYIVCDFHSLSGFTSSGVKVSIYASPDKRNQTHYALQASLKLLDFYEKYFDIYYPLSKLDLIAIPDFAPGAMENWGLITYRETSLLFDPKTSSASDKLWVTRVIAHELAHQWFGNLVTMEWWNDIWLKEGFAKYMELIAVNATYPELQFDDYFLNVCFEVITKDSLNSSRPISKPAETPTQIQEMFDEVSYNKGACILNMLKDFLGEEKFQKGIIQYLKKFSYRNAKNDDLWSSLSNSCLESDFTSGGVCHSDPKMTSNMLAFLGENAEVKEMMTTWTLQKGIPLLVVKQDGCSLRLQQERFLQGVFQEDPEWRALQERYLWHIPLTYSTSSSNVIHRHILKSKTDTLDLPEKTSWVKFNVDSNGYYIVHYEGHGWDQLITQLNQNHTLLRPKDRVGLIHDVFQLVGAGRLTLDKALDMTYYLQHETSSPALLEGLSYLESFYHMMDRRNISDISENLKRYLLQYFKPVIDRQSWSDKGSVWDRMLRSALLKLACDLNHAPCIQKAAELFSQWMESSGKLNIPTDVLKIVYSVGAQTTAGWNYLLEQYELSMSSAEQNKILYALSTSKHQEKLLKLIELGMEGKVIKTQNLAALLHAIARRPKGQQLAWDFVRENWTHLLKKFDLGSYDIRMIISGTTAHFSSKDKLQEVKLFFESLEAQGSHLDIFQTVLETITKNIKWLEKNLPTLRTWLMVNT

[2] = molecular target: T1, Endoplasmic reticulum aminopeptidase 2; test: Activation of recombinant ERAP2 (unknown origin) expressed in baculovirus infected Hi-5 insect cells at 100 uM using R-AMC as substrate preincubated for 30 mins followed by substrate addition and measured every 3 mins for 1 hr by flourescence assay relative to control; details: filed as activator, time 90.0 min
[3] = molecular target: T1, Endoplasmic reticulum aminopeptidase 2; test: Inhibition of human ERAP2 assessed as hydrolysis of KSIINFEKL to SIINFEKL measured after 2 hrs by LC-MS analysis
[4] = molecular target: Endoplasmic reticulum aminopeptidase 1 (Homo sapiens) (UniProt Q9NZ08); test: Inhibition of recombinant C-terminal 10-His-tagged human ERAP1 at 100 uM using L-AMC as substrate preincubated for 30 mins followed by substrate addition measured every 3 mins for 1 hr by flourescence assay relative to control; details: time 90.0 min
Chain of Endoplasmic reticulum aminopeptidase 1 (Homo sapiens) (Q9NZ08 whole entry): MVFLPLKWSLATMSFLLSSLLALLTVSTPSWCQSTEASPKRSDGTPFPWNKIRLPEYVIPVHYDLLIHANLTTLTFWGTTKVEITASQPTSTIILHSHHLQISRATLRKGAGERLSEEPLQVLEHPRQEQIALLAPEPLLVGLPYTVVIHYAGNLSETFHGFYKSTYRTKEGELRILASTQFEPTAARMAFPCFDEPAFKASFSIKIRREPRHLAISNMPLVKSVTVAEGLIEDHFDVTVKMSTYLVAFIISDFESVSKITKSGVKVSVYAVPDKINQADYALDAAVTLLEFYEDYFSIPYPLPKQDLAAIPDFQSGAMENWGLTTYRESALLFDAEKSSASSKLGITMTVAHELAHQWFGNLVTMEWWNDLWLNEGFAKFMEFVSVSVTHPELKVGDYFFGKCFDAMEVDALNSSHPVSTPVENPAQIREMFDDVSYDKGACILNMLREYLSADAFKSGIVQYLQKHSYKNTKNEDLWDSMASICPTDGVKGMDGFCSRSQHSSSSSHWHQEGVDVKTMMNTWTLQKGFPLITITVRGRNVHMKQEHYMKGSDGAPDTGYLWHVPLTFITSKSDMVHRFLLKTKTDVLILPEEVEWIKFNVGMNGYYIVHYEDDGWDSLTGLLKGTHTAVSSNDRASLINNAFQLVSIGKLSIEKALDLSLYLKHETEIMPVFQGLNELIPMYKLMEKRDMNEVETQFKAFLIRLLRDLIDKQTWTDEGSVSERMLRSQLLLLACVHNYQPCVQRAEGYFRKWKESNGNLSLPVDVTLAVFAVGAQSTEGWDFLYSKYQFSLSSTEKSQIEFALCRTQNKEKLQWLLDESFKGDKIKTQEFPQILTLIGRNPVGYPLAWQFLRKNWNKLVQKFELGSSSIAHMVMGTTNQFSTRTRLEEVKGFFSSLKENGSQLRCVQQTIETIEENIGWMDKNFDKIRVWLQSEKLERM

[5] = molecular target: Leucyl-cystinyl aminopeptidase (IRAP), Homo sapiens (UniProt Q9UIQ6); test: Inhibition of recombinant human IRAP expressed in HEK293 cells at 100 uM using L-AMC as substrate preincubated for 30 mins followed by substrate addition measured every 3 mins for 1 hr by flourescence assay relative to control; details: time 90.0 min
Chain of Leucyl-cystinyl aminopeptidase (IRAP), Homo sapiens (Q9UIQ6 whole entry, looked up): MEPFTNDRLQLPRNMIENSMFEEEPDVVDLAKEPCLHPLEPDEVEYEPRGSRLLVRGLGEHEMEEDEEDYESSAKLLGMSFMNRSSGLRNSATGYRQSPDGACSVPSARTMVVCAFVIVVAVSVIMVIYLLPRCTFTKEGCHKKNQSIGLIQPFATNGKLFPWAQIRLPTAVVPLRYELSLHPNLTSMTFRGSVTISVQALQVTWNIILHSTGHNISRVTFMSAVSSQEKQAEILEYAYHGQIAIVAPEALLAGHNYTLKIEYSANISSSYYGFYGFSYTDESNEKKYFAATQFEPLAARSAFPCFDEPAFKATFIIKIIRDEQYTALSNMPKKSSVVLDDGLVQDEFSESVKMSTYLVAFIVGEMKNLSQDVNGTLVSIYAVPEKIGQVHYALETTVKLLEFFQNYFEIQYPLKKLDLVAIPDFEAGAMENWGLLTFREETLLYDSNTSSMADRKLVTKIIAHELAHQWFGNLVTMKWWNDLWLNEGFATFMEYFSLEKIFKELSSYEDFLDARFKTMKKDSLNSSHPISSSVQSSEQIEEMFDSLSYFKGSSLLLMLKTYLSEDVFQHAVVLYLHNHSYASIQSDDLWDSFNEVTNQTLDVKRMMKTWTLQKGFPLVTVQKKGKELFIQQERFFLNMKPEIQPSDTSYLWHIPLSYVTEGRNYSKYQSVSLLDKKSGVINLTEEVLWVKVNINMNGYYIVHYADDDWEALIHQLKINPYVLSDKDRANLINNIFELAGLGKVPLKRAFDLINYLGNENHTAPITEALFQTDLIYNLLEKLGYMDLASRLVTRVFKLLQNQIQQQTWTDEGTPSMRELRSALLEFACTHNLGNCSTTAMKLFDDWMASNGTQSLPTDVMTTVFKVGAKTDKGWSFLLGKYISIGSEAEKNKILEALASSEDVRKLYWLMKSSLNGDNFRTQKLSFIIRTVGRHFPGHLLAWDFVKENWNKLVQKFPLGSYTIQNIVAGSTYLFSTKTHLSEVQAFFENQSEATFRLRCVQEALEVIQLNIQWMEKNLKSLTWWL

[6] = molecular target: T1, Endoplasmic reticulum aminopeptidase 2; test: Inhibition of recombinant ERAP2 (unknown origin) expressed in baculovirus infected Hi-5 insect cells using R-AMC as substrate preincubated for 30 mins followed by substrate addition and measured every 3 mins for 1 hr by flourescence assay
[7] = molecular target: T1, Endoplasmic reticulum aminopeptidase 2; test: Inhibition of human ERAP2

SMILES | fold change (FC) [2] | inhibition [4] | inhibition [5] | other results
CC(C)C[C@H](NC(=O)[C@@H](O)[C@H](N)Cc1ccccc1)C(=O)O | – | – | – | inhibition [1]: 100%
CC(C)C[C@@H](C(=O)O)N(C)C(=O)c1ccc(N(CCc2ccccc2)S(=O)(=O)c2ccc(F)cc2)cc1 | 1.46 | – | – | –
CN(C(=O)c1ccc(N(CCc2ccccc2)S(=O)(=O)c2ccccc2)cc1)[C@@H](Cc1ccccc1)C(=O)O | 1.76 | < 20% | 50% | IC50 [3]: 89 µM
CN(C(=O)c1ccc(N(CCN2CCCC2)S(=O)(=O)c2ccc(F)cc2)cc1)[C@@H](Cc1ccccc1)C(=O)O | – | 10% | 49% | IC50 [6]: 9.7 µM; IC50 [3]: 98 µM
C#CC[C@H](CP(=O)(O)[C@@H](N)CCc1ccccc1)C(=O)N[C@@H](Cc1ccccc1)C(N)=O | – | – | – | IC50 [7]: 33 µM
O=C(O)CN(CC(=O)N1CCN(Cc2ccccc2)C[C@@H]1Cc1c[nH]c2ccccc12)c1ccccc1 | – | < 10% | – | –
CN(C(=O)c1ccc(N(CCc2ccccc2)S(=O)(=O)c2ccc(F)cc2)cc1)[C@@H](Cc1ccccc1)C(=O)O | 1.84 | < 20% | 50% | –
CC(C)C[C@@H](C(=O)O)N(C)C(=O)c1ccc(N(CCc2ccccc2)S(=O)(=O)c2ccccc2)cc1 | 1.43 | – | – | –
